Reference: patent US10876089B2, “Apparatus and method for high-fidelity podocyte cultivation” (priority 2016, dated 2020)
“Also recorded” adds a separate entry of the source.

Columns and labels:
Format in all cases: cell-based
[1] = system: podocyte layer; assay: Permeability of cells cultured on transwell microcurvature or flat membrane; details: treatment by PAN, 15,000 or 50,000 cells/cm^2
Excerpt: One of the important physiological consequences from the disruption of the nephrin adhesion protein is the loss of barrier function from the podocyte slit diaphragm, which leads to abnormal protein levels in urine (e.g. albumin, etc.). The disclosed microcurvature membrane system may enable a direct measurement of the permeability of the podocyte layer in a non-invasive manner, in order to probe the barrier function at the podocyte slit diaphragm.
The permeability of the microcurvature membrane, without cells, may be investigated using dye, fluorescently labeled molecules, or any molecule whose concentration may be quantified in the chamber solution. Some examples include 1-10 μM of 70 kDa TRITC-dextran or 60 kDa FITC-albumin. The molecule of interest may be placed in the upper transwell chamber and collected in the lower chamber over time, or vice-versa. […] FIG. 12F is a plot of example preliminary results showing the permeability of the membrane surface (also referred to as a “topomembrane”) in different configurations, namely without microcurvature (“flat topomembrane”) or with convex microcurvature (“bubble topomembrane”); with cells cultivated on the surface (“+cells”), before cell cultivation (“no cells”) or after cultivated cells are removed (“cells removed”); and compared to the culture well without any membrane (“transwells”). […]

[2] = system: E11 murine podocytes; assay: Immunofluorescent staining (F-actin, nephrin, WGA) of differentiated podocytes; details: 100 μM PAN vs without PAN; microcurvature surface
Procedure: For immunofluorescent staining, cells were first washed with Dulbecco's phosphate buffered saline (DPBS, Life Technologies) and then fixed in 4% paraformaldehyde solution for 15 min at room temperature, followed by another wash with DPBS. For F-actin staining, the cells were permeated and blocked in 10% (v/v) FBS and 0.25% Triton X100 in DPBS for 1 hour. Next, the cells were incubated with Alexa Fluor® 660 phalloidin (Thermo Fisher Scientific) for 1 hour. For Nephrin and Wheat Germ Agglutinin (WGA) staining, the cells were blocked in 10% normal goat serum for 1 hour. Next, the cells were incubated in primary anti-Nephrin antibody (Thermo Fisher Scientific) overnight at 4° C. followed by incubation with FITC goat anti-rabbit IgG (1:200 dilutions, Abcam, UK) for 1 hour at room temperature. Lastly, the cells were incubated with Rhodamine-WGA (1:1000 dilution, Vector Laboratories, USA) for 10 min at room temperature.
The additional influence of the microcurvature topography is shown by the change from compacted, spindle-like cells to arborized morphologies. This was especially evident in the vehicle-only group.
From immunostaining results, it appeared that cell membrane area and nephrin expression decreased, indicating a possible reduction in cell spreading as a result of the PAN insult. However, the localization of nephrin still consistently appeared on top of the bubbles. […]

[3] = system: murine nephrin gene (NPHS1) in E11 murine podocytes; assay: PAN stimulation of differentiated podocytes, nephrin gene expression by RT-qPCR; details: 17-100 μM PAN for 24 hours (day 8 to 9); microcurvature surface; 15,000 cells/cm^2; (+)ATRA media
Procedure: On day 9, cells were washed with warm, non-supplemented RPMI 1640 basal media prior to lysing and RNA isolation. A High Pure RNA Isolation Kit (Roche) was used according to manufacturer's instructions, using 50 μL of elution buffer for the final step. Each sample from the study consisted of 3 individual wells pooled together, to ensure that a sufficient amount of RNA was being collected. Thus, 9 wells were seeded for each group to generate n=3 samples per condition. Isolated RNA was converted to complementary DNA (cDNA) using the High Capacity cDNA Reverse Transcription Kit (Applied Biosystems, USA) for ensuing PCR applications. RNA solutions were diluted to a final 7.5 ng/μL in a total reaction volume of 60 μL. Real-time PCR was run on the generated cDNA using the TaqMan Gene Expression Assay (Applied Biosystems). cDNA was diluted to 3.33 ng/μL in a volume of 9 μL, for a total of 30 ng cDNA per reaction. […] Expression of murine nephrin gene (NPHS1, Thermo Fisher Scientific) and the housekeeping gene Beta-2-Microglobulin (B2M, Thermo Fisher Scientific) was determined using relative quantification analysis (28), where C57/bl6 mouse whole kidney cDNA was used as a positive control and as a normalizer in calculations. […]

SMILES: CN(C)c1ncnc2c1ncn2[C@@H]1O[C@H](CO)[C@@H](N)[C@H]1O [PAN, Puromycin amino nucleoside]
- permeability of cells in response to chemical insult [1]: increasing permeability
- cell membrane area (immunostaining) [2]: decreased
- nephrin expression (immunostaining) [2]: decreased
- nephrin gene expression compared to the PAN-free control [3]: moderate downregulation; also recorded: dose-response downregulated behaviour
